Measured values published in patent US6664372B1, “Azatide peptidomimetics” (The Scripps Research Institute, priority 1996, dated 2003).
Starred links: 1 amine or outer side, 2 acyl side, 3 side chain; linkers in the order of their positions; H or OH if unused. Non-standard residues stand in square brackets, D forms with d. No end group written: not given here. azaTyr = O=C(N(Cc1ccc(O)cc1)N[*:1])[*:2]; azaPhe = O=C(N(Cc1ccccc1)N[*:1])[*:2]; azaLeu = CC(C)CN(N[*:1])C(=O)[*:2]; azaGly = NNC(=O)O

Test system: anti-β-endorphin monoclonal antibody 3-E7 (IgG 3-E7)
Assay: Azatide (16) competition ELISA for anti-β-endorphin monoclonal antibody
Type: binding, mouse
Conditions: at 1 mM, plate coated with Tyr-Gly-Gly-Phe-Leu-BSA conjugate

Tyr^a-Gly^a-Gly^a-Phe^a-Leu^a.2CP3COOH ([azaTyr][azaGly][azaGly][azaPhe][azaLeu]; also: salt/adduct .2CP3COOH) [compound 16, Leu-enkephalin azatide mimetic; every α-carbon replaced by nitrogen]
competition with the natural peptide for 3-E7 (competition ELISA): non-ligand | competition with the natural peptide for 3-E7 (competition ELISA) (listed as azatide pentamer): no propensity to compete
